PubChem BioAssay AID256 (DTP/NCI, 2004)
“And” between values parts separate entries of the source, which are not always exact repeats. Equal values may be shown once. Inconclusive results and toxic doses are left out.

System: CD2F1 mice, L1210 leukemia ip, survival T/C
Test: NCI In Vivo Anticancer Drug Screen. Data for tumor model L1210 Leukemia (intraperitoneal) in CD2F1 (CDF1) mice
Conditions: higher = longer survival
Summary of the method: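 Compound-dosed mice with transplantable tumor versus matched vehicle controls; endpoint ratio T/C reported.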

[1] = endpoint: mean survival time, dose: 100.0 mg/kg/injection, schedule: Q01DX009 (ip), vehicle: saline with Tween-80
[2] = endpoint: mean survival time, dose: 100.0 mg/kg/injection, schedule: Q04DX003 (ip), vehicle: saline with Tween-80
[3] = endpoint: mean survival time, dose: 200.0 mg/kg/injection, schedule: Q01DX009 (ip), vehicle: saline with Tween-80
[4] = endpoint: mean survival time, dose: 200.0 mg/kg/injection, schedule: Q04DX003 (ip), vehicle: saline with Tween-80
[5] = endpoint: mean survival time, dose: 400.0 mg/kg/injection, schedule: Q01DX009 (ip), vehicle: saline with Tween-80
[6] = endpoint: mean survival time, dose: 400.0 mg/kg/injection, schedule: Q04DX003 (ip), vehicle: saline with Tween-80
[7] = endpoint: mean survival time, dose: 100.0 mg/kg/injection, schedule: Q04DX002 (ip), vehicle: saline with Tween-80
[8] = endpoint: mean survival time, dose: 200.0 mg/kg/injection, schedule: Q04DX002 (ip), vehicle: saline with Tween-80
[9] = endpoint: mean survival time, dose: 400.0 mg/kg/injection, schedule: Q04DX002 (ip), vehicle: saline with Tween-80
[10] = endpoint: mean survival time, dose: 100.0 mg/kg/injection, schedule: Q01DX001 (ip), vehicle: saline
[11] = endpoint: mean survival time, dose: 200.0 mg/kg/injection, schedule: Q01DX001 (ip), vehicle: saline
[12] = endpoint: mean survival time, dose: 400.0 mg/kg/injection, schedule: Q01DX001 (ip), vehicle: saline

With `N[C@@H](Cc1c[nH]c2ccccc12)C(=O)Nc1nncs1` the T/C (endpoint: median survival time, dose: 8.35 mg/kg/injection, schedule: Q03HX027 (ip), vehicle: saline) was 96 % of control, the T/C (endpoint: median survival time, dose: 16.7 mg/kg/injection, schedule: Q03HX027 (ip), vehicle: saline) was 100 % of control and the T/C (endpoint: median survival time, dose: 33.4 mg/kg/injection, schedule: Q03HX027 (ip), vehicle: saline) was 103 % of control. The T/C (endpoint: median survival time, dose: 47.88 mg/kg/injection, schedule: Q03HX027 (ip), vehicle: saline) was 107 % of control, the T/C (endpoint: median survival time, dose: 48.0 mg/kg/injection, schedule: Q03HX027 (ip), vehicle: saline) was 108 % of control and the T/C (endpoint: median survival time, dose: 50.0 mg/kg/injection, schedule: Q01DX009 (ip), vehicle: saline) was 98 % of control. For the same molecule, the T/C (endpoint: median survival time, dose: 66.7 mg/kg/injection, schedule: Q03HX027 (ip), vehicle: saline) was 103 % of control, the T/C (endpoint: median survival time, dose: 79.8 mg/kg/injection, schedule: Q03HX027 (ip), vehicle: saline) was 113 % of control and the T/C (endpoint: median survival time, dose: 79.92 mg/kg/injection, schedule: Q03HX027 (ip), vehicle: saline) was 113 % of control. The T/C (endpoint: median survival time, dose: 100.0 mg/kg/injection, schedule: Q01DX009 (ip), vehicle: saline) was 97 % of control, the T/C (endpoint: median survival time, dose: 133.2 mg/kg/injection, schedule: Q03HX027 (ip), vehicle: saline) was 116 % of control and the T/C (endpoint: median survival time, dose: 200.0 mg/kg/injection, schedule: Q01DX009 (ip), vehicle: saline) was 105 % of control. For the same molecule, the T/C (endpoint: median survival time, dose: 222.0 mg/kg/injection, schedule: Q03HX027 (ip), vehicle: saline) was 116 % of control, the T/C (endpoint: median survival time, dose: 369.45 mg/kg/injection, schedule: Q03HX027 (ip), vehicle: saline) was 87 % of control and the T/C (endpoint: median survival time, dose: 400.0 mg/kg/injection, schedule: Q01DX009 (ip), vehicle: saline) was 120 % of control.

For `O=c1[nH]cc(C(O)Cc2ccccc2)c(=O)[nH]1` (stereo not given), the T/C [1] was 97 % of control, the T/C [2] was 104 % of control and the T/C [3] was 100 % of control. For the same molecule, the T/C [4] was 94 % of control, the T/C [5] was 97 % of control and the T/C [6] was 98 % of control.

`COc1c(C)c2c(c(OC(C)=O)c1CC(=O)C(C)(O)CCC(=O)O)C(=O)OC2` (stereo not given) was tested, and the T/C [7] was 103 % of control, the T/C [8] was 96 % of control and the T/C [9] was 112 % of control.

For `O=[N+]([O-])Nc1ccc(C(c2ccc(N[N+](=O)[O-])cc2)c2ccc([N+](=O)[O-])cc2)cc1`, the T/C [7] was 95 % of control, the T/C [8] was 88 % of control and the T/C [9] was 88 % of control.

With `Cn1c(=O)c2c(nc(-c3ccccc3)n2O)n(C)c1=O` the T/C (endpoint: mean survival time, dose: 12.5 mg/kg/injection, schedule: Q01DX005 (ip), vehicle: other) was 97 % of control, the T/C (endpoint: mean survival time, dose: 25.0 mg/kg/injection, schedule: Q01DX005 (ip), vehicle: other) was 105 % of control and the T/C (endpoint: mean survival time, dose: 50.0 mg/kg/injection, schedule: Q01DX005 (ip), vehicle: other) was 92 % of control. For the same molecule, the T/C (endpoint: mean survival time, dose: 100.0 mg/kg/injection, schedule: Q01DX005 (ip), vehicle: other) was 97 % of control.

In the case of `c1ccc(C2=C(c3ccccn3)N=c3ccccc3=c3ccccc3=N2)nc1`, the T/C (endpoint: mean survival time, dose: 100.0 mg/kg/injection, schedule: Q01DX001 (ip), vehicle: saline with Tween-80) is reported as 101 % of control, the T/C (endpoint: mean survival time, dose: 200.0 mg/kg/injection, schedule: Q01DX001 (ip), vehicle: saline with Tween-80) is reported as 111 % of control and the T/C (endpoint: mean survival time, dose: 400.0 mg/kg/injection, schedule: Q01DX001 (ip), vehicle: saline with Tween-80) is reported as 93 % of control.

For `CN(C)c1ccc(/C=C/c2ccncc2)cc1`, the T/C [1] was 95 % of control, the T/C [3] was 96 % of control and the T/C [5] was 89 % of control.

In the case of `O=C1c2ccccc2S(=O)(=O)N1CC(O)COc1ccc(Cl)cc1` (stereo not given), the T/C [2] is reported as 101 % of control, the T/C [4] is reported as 101 % of control and the T/C [6] is reported as 93 % of control.

With `COC(=O)C(CSCSCc1ccccc1)NC(=O)C(CSCc1ccccc1)NC(=O)CCNC(=O)OCc1ccccc1` (stereo not given) the T/C (endpoint: mean survival time, dose: 25.0 mg/kg/injection, schedule: Q01DX009 (ip), vehicle: Klucel (hydroxypropylcellulose) (HPC)) was 96 % of control, the T/C (endpoint: mean survival time, dose: 50.0 mg/kg/injection, schedule: Q01DX009 (ip), vehicle: Klucel (hydroxypropylcellulose) (HPC)) was 93 % of control and the T/C (endpoint: mean survival time, dose: 100.0 mg/kg/injection, schedule: Q01DX009 (ip), vehicle: Klucel (hydroxypropylcellulose) (HPC)) was 88 % of control. The T/C (endpoint: mean survival time, dose: 200.0 mg/kg/injection, schedule: Q01DX009 (ip), vehicle: Klucel (hydroxypropylcellulose) (HPC)) was 93 % of control and the T/C (endpoint: mean survival time, dose: 400.0 mg/kg/injection, schedule: Q01DX009 (ip), vehicle: Klucel (hydroxypropylcellulose) (HPC)) was 90 % of control.

In the case of `CCOP(=O)(OCC)C(C)OC` (stereo not given), the T/C (endpoint: mean survival time, dose: 100.0 mg/kg/injection, schedule: Q04DX003 (ip), vehicle: saline) is reported as 97 % of control, the T/C (endpoint: mean survival time, dose: 200.0 mg/kg/injection, schedule: Q04DX003 (ip), vehicle: saline) is reported as 108 % of control and the T/C (endpoint: mean survival time, dose: 400.0 mg/kg/injection, schedule: Q04DX003 (ip), vehicle: saline) is reported as 97 % of control.

With `CCCCN(CCCC)C(=O)Nc1ccccc1` the T/C [10] was 100 % of control, the T/C [11] was 100 % of control and the T/C [12] was 98 % of control.

For `c1ccc2c(c1)Oc1ccccc1C2C1c2ccccc2Oc2ccccc21`, the T/C [2] was 100 % of control, the T/C [4] was 100 % of control and the T/C [6] was 116 % of control.

`C/C=C(\Cl)C1=CC(=O)C23CC2C2(C)COC1(O)C3(O)O2` (stereo not given) was tested, and the T/C (endpoint: mean survival time, dose: 1.5 mg/kg/injection, schedule: Q01DX009 (ip), vehicle: saline with Tween-80) was 93 % of control, the T/C (endpoint: mean survival time, dose: 3.0 mg/kg/injection, schedule: Q01DX009 (ip), vehicle: saline with Tween-80) was 93 % of control and the T/C (endpoint: mean survival time, dose: 6.0 mg/kg/injection, schedule: Q01DX009 (ip), vehicle: saline with Tween-80) was 110 % of control.

With `[N-]=[N+]=CC(=O)NCC(=O)NCCNCCO` the T/C (endpoint: mean survival time, dose: 400.0 mg/kg/injection, schedule: Q01DX009 (ip), vehicle: other) was 156 % of control, the T/C (endpoint: mean survival time, dose: 600.0 mg/kg/injection, schedule: Q01DX009 (ip), vehicle: other) was 164 % of control and the T/C (endpoint: mean survival time, dose: 800.0 mg/kg/injection, schedule: Q01DX009 (ip), vehicle: other) was 155 % of control.

`NC(=S)N/N=C/c1ccccc1N` was tested, and the T/C (endpoint: mean survival time, dose: 100.0 mg/kg/injection, schedule: Q04DX003 (ip), vehicle: acetone) was 103 % of control, the T/C (endpoint: mean survival time, dose: 200.0 mg/kg/injection, schedule: Q04DX003 (ip), vehicle: acetone) was 97 % of control and the T/C (endpoint: mean survival time, dose: 400.0 mg/kg/injection, schedule: Q04DX003 (ip), vehicle: acetone) was 104 % of control.

In the case of `Cc1cc(C)c(C(=O)CC(C)C)c(C)c1`, the T/C [10] is reported as 104 % of control, the T/C [11] is reported as 104 % of control and the T/C [12] is reported as 104 % of control.

For `O=S(=O)(O)C1CCC[N-]C1.O=S(=O)(O)C1CCC[N-]C1.[Cl][Pt+2]([Cl])([Cl])[Cl]` (stereo not given), the T/C (endpoint: mean survival time, dose: 12.5 mg/kg/injection, schedule: Q01DX009 (ip), vehicle: water) was 102 % of control, the T/C (endpoint: mean survival time, dose: 25.0 mg/kg/injection, schedule: Q01DX009 (ip), vehicle: water) was 102 % of control and the T/C (endpoint: mean survival time, dose: 50.0 mg/kg/injection, schedule: Q01DX009 (ip), vehicle: water) was 105 % of control. The T/C (endpoint: mean survival time, dose: 100.0 mg/kg/injection, schedule: Q01DX009 (ip), vehicle: water) was 110 % of control.

With `O=C(c1ccccc1)C1(Br)CCC1` the T/C [2] was 95 % of control, the T/C [4] was 97 % of control and the T/C [6] was 100 % of control.

In the case of `CCOC(=O)c1ncsc1NC(=O)NC`, the T/C (endpoint: mean survival time, dose: 75.0 mg/kg/injection, schedule: Q01DX001 (ip), vehicle: saline) is reported as 101 % of control and the T/C (endpoint: mean survival time, dose: 150.0 mg/kg/injection, schedule: Q01DX001 (ip), vehicle: saline) is reported as 100 % of control.

With `CC(=O)NNC(=O)c1ccc2ccccc2n1` the T/C (endpoint: mean survival time, dose: 50.0 mg/kg/injection, schedule: Q01DX009 (ip), vehicle: saline with Tween-80) was 96 % of control, the T/C (endpoint: mean survival time, dose: 50.0 mg/kg/injection, schedule: Q04DX003 (ip), vehicle: saline with Tween-80) was 107 % of control and the T/C [1] was 104 % of control. For the same molecule, the T/C [2] was 103 % of control, the T/C [3] was 111 % of control and the T/C [4] was 101 % of control.

With `COC(=O)Nc1nc2ccc(C(=O)c3ccccc3)cc2[nH]1` the T/C (endpoint: mean survival time, dose: 2.0 mg/kg/injection, schedule: Q04DX003 (ip), vehicle: saline with Tween-80) was 94 % of control, the T/C (endpoint: mean survival time, dose: 4.0 mg/kg/injection, schedule: Q04DX003 (ip), vehicle: saline with Tween-80) was 94 % of control and the T/C (endpoint: mean survival time, dose: 8.0 mg/kg/injection, schedule: Q04DX003 (ip), vehicle: saline with Tween-80) was 91 % of control. For the same molecule, the T/C (endpoint: mean survival time, dose: 16.0 mg/kg/injection, schedule: Q04DX003 (ip), vehicle: saline with Tween-80) was 100 % of control and 112 % of control.
